22 molecules from patent US20230082430A1 (C4 Therapeutics, Inc., priority 2019, published 2023) can be followed below.

The test system of this assay is NCIH929.1 cells. Kind of assay: Cell viability assay for Table 2 (CellTiter-Glo 2.0, ATP quantification, 96 hr). The assay is classed as cell-based. As to conditions: NCIH929.1 cell viability, 96 hr, top concentration 1 μM, 14 points half log titration, read-out: IC50. The text has this:
Cell Viability Assay for Table 2
CellTiter-Glo® 2.0 Assay was purchased from Promega (Madison, Wis., USA). NCIH929.1 cell line was purchased from ATCC (Manassas, Va., USA). Cell culture flasks and 384-well microplates were acquired from VWR (Radnor, Pa., USA).
On the technique in general: In ATP-based viability assays light output follows the ATP content of the culture.

Like-named read-outs stand apart in the source and are kept apart here. Some results are limits rather than exact numbers.

A word on the IC50: it is the midpoint of a concentration-inhibition curve. Regarding `O=C1CCC(N2C(=O)c3cccc4c(Cc5ccc(CN6CCC7(CCCO7)CC6)cc5)ccc2c34)C(=O)N1` (stereo not shown) [Compound 215, 3-(6-(4-((1-oxa-8-azaspiro[4.5]decan-8-yl)methyl)benzyl)-2-oxobenzo[cd]indol-1(2H)-yl)piperidine-2,6-dione], under “96 h”, the IC50 is below 1 nM.
`O=C1CCC(N2C(=O)c3cccc4c(Cc5ccc(CN6CCOCC6)cc5)ccc2c34)C(=O)N1` (stereo not shown) [Compound 218, 3-(6-(4-(morpholinomethyl)benzyl)-2-oxobenzo[cd]indol-1(2H)-yl)piperidine-2,6-dione]: for the setting “96 h”, the IC50 was below 1 nM.
Consider `O=C1CCC(N2C(=O)c3cccc4c(Cc5ccc(CN6CCC7(CCCO7)CC6)cc5)cnc2c34)C(=O)N1` (stereo not shown) [Compound 222, 3-[23-[[4-(1-oxa-8-azaspiro[4.5]decan-8-ylmethyl)phenyl]methyl]-28-oxo-31,34-diazatricyclododeca-(2),1(21),7(23),22(24),25(31)-pentaen-34-yl]piperidine-2,6-dione], for which the IC50 (96 h) is below 1 nM.
As for `O=C1CCC(N2C(=O)c3cccc4c(Cc5cnn(C6CCN(C7(C8CC8)CC7)CC6)c5)ccc2c34)C(=O)N1` (stereo not shown) [Compound 223, 3-[6-[[1-[1-(1-cyclopropylcyclopropyl)-4-piperidyl]pyrazol-4-yl]methyl]-2-oxo-benzo[cd]indol-1-yl]piperidine-2,6-dione], the IC50 (96 h) is below 1 nM.
With `O=C1CCC(N2C(=O)c3cccc4c(Cc5ccc(CN6CCC7(CCCCC7)CC6)cc5)ccc2c34)C(=O)N1` (stereo not shown) [Compound 224, 3-(6-(4-((3-azaspiro[5.5]undecan-3-yl)methyl)benzyl)-2-oxobenzo[cd]indol-1(2H)-yl)piperidine-2,6-dione], the IC50 (96 h) was below 1 nM.
On to `O=C1CCC(N2C(=O)c3cccc4c(Cc5ccc(CN6CCC7(CCCC7)CC6)cc5)ccc2c34)C(=O)N1` (stereo not shown) [Compound 225, 3-(6-(4-((8-azaspiro[4.5]decan-8-yl)methyl)benzyl)-2-oxobenzo[cd]indol-1(2H)-yl)piperidine-2,6-dione], for which the IC50 (96 h) was below 1 nM.
`O=C1CCC(N2C(=O)c3cccc4c(Cc5ccc(CN6C7COCC6C7)cc5)ccc2c34)C(=O)N1` (stereo not shown) [Compound 226, 3-(6-(4-((3-oxa-6-azabicyclo[3.1.1]heptan-6-yl)methyl)benzyl)-2-oxobenzo[cd]indol-1(2H)-yl)piperidine-2,6-dione]: the IC50 was below 1 nM.
For the molecule `O=C1CCC(N2C(=O)c3cccc4c(Cc5ccc(CN6CCC(c7ccccc7)CC6)cc5)ccc2c34)C(=O)N1` (stereo not shown) [Compound 227, 3-(2-oxo-6-(4-((4-phenylpiperidin-1-yl)methyl)benzyl)benzo[cd]indol-1(2H)-yl)piperidine-2,6-dione], the IC50 (96 h) was below 1 nM.
As to `O=C1CCC(N2C(=O)c3cccc4c(Cc5ccc(CN6CCC7(CCCCO7)CC6)cc5)ccc2c34)C(=O)N1` (stereo not shown) [Compound 228, 3-(6-(4-((1-oxa-9-azaspiro[5.5]undecan-9-yl)methyl)benzyl)-2-oxobenzo[cd]indol-1(2H)-yl)piperidine-2,6-dione], for the setting “96 h”, the IC50 is below 1 nM.
With `CN(Cc1ccc(Cc2ccc3c4c(cccc24)C(=O)N3C2CCC(=O)NC2=O)cc1)c1ccccc1` (stereo not shown) [Compound 229, 3-(6-(4-((methyl(phenyl)amino)methyl)benzyl)-2-oxobenzo[cd]indol-1(2H)-yl)piperidine-2,6-dione], the IC50 (96 h) is below 1 nM.
As to `O=C1CCC(N2C(=O)c3cccc4c(Cc5ccc(CN6CC7(COC7)C6)cc5)ccc2c34)C(=O)N1` (stereo not shown) [Compound 230, 3-(6-(4-((2-oxa-6-azaspiro[3.3)heptan-6-yl)methyl)benzyl)-2-oxobenzo[cd]indol-1(2H)-yl)piperidine-2,6-dione], the IC50 (96 h) is below 1 nM.
The same measure, in the same setting: as for `C[C@@H]1CN(Cc2ccc(Cc3ccc4c5c(cccc35)C(=O)N4C3CCC(=O)NC3=O)cc2)C[C@H](C)O1` (stereo partly drawn) [Compound 231, 3-(6-(4-(((2R,6S)-2,6-dimethylmorpholino)methyl)benzyl)-2-oxobenzo[cd]indol-1(2H)-yl)piperidine-2,6-dione], the figure is below 1 nM.
With `CC(C)(O)C1CCN(Cc2ccc(Cc3ccc4c5c(cccc35)C(=O)N4C3CCC(=O)NC3=O)cc2)CC1` (stereo not shown) [Compound 232, 3-(6-(4-((4-(2-hydroxypropan-2-yl)piperidin-1-yl)methyl)benzyl)-2-oxobenzo[cd]indol-1(2H)-yl)piperidine-2,6-dione], the IC50 (96 h) was below 1 nM.
Turning to `CC1(n2cc(Cc3ccc4c5c(cccc35)C(=O)N4C3CCC(=O)NC3=O)cn2)CCN(S(=O)(=O)C2(C)CCC2)CC1` (stereo not shown) [Compound 233, 3-[6-[[1-[4-methyl-1-(1-methylcyclobutyl)sulfonyl-4-piperidyl]pyrazol-4-yl]methyl]-2-oxo-benzo[cd]indol-1-yl]piperidine-2,6-dione], for the setting “96 h”, the IC50 is below 1 nM.
Same read-out and setting: as for `CC1(C)C(N2CCC(n3cc(Cc4ccc5c6c(cccc46)C(=O)N5C4CCC(=O)NC4=O)cn3)CC2)C1(C)C` (stereo not shown) [Compound 240, 3-(2-oxo-6-((1-(1-(2,2,3,3-tetramethylcyclopropyl)piperidin-4-yl)-1H-pyrazol-4-yl)methyl)benzo[cd]indol-1(2H)-yl)piperidine-2,6-dione], the figure is below 1 nM; as for `CC(C)(C)OC(=O)N1CCC(C)(n2cc(C(=O)c3ccc4c5c(cccc35)C(=O)N4C3CCC(=O)NC3=O)cn2)CC1` (stereo not shown) [Compound 241, 4-{4-[1-(2,6-Dioxo-piperidin-3-yl)-2-oxo-1,2-dihydro-benzo[cd]indole-6-carbonyl]-pyrazol-1-yl}-4-methyl-piperidine-1-carboxylic acid tert-butyl ester], below 100 nM.
In the case of `O=C1CCC(N2C(=O)c3cccc4c(Cc5cnn(C6CCN([C@H]7CCC8(CCC8)C7)CC6)c5)ccc2c34)C(=O)N1` (stereo partly shown) [Compound 242], under “96 h”, the IC50 is below 1 nM.
Same read-out and setting: as for `O=C1CCC(N2C(=O)c3cccc4c(Cc5cnn(C6CCN([C@@H]7CCC8(CCC8)C7)CC6)c5)ccc2c34)C(=O)N1` (stereo partly shown) [Compound 243], the figure is below 1 nM; as for `CC1(C(=O)N2CCN(c3cnn(Cc4ccc5c6c(cccc46)C(=O)N5C4CCC(=O)NC4=O)c3)CC2)CCC1` (stereo not shown) [Compound 246, 3-(6-((4-(4-(1-methylcyclobutane-1-carbonyl)piperazin-1-yl)-1H-pyrazol-1-yl)methyl)-2-oxobenzo[cd]indol-1(2H)-yl)piperidine-2,6-dione], below 1 nM; as for `COC(c1cnn(C2CCN(C(=O)C3(C)CCC3)CC2)c1)c1ccc2c3c(cccc13)C(=O)N2C1CCC(=O)NC1=O` (stereo not shown) [Compound 247, 3-[6-[methoxy-[1-[1-(1-methylcyclobutanecarbonyl)-4-piperidyl]pyrazol-4-yl]methyl]-2-oxo-benzo[cd]indol-1-yl]piperidine-2,6-dione], below 1 nM.
For the molecule `CC(C)(C)OC(=O)N1CCC(n2cc(Nc3ccc4c5c(cccc35)C(=O)N4C3CCC(=O)NC3=O)cn2)CC1` (stereo not shown) [Compound 248, tert-butyl 4-[4-[[1-(2,6-dioxo-3-piperidyl)-2-oxo-benzo[cd]indol-6-yl]amino]pyrazol-1-yl]piperidine-1-carboxylate], for the setting “96 h”, the IC50 was below 100 nM.
With `CC1(C(=O)N2CCC(n3cc(Nc4ccc5c6c(cccc46)C(=O)N5C4CCC(=O)NC4=O)cn3)CC2)CCC1` (stereo not shown) [Compound 249, 3-[6-[[1-[1-(1-methylcyclobutanecarbonyl)-4-piperidyl]pyrazol-4-yl]amino]-2-oxo-benzo[cd]indol-1-yl]piperidine-2,6-dione], under “96 h”, the IC50 was below 100 nM.
